One series deals with Uromyces appendiculatus. Nature of the series: In vivo preventive test on Uromyces appendiculatus (bean rust). The settings on record: 500 ppm, preventive spray, bean plants, grading 11 days after contamination. In short, it runs like this:
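'Saxa' bean plants at the 2-leaf stage were sprayed with compound and inoculated 24 h later with U. appendiculatus spores (150 000 spores per ml). Plants were incubated 24 h at 20 °C and 100% RH, then 10 days at 20 °C and 70–80% RH. Percent efficacy versus solvent-treated controls was graded 11 days post-inoculation.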

Series [1] in a line: log P by HPLC on reversed phase columns (EEC directive 79/831 Annex V.A8). In kind it is physicochemical. The settings on record: Table 1, formula (I); HPLC/LC-MS at pH 2.7, 0.1% formic acid in water / acetonitrile, gradient 10% to 95%.
For the next series, the system named is Botrytis cinerea. The series is described as follows: In vivo preventive test on Botrytis cinerea (grey mould), gherkin plants. In short, it runs like this: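 Gherkin plants sprayed at Z11 cotyledon stage with compound in acetone/tween/DMSO/water, inoculated 24 h later with B. cinerea spores (50 000 spores per ml) in nutrient solution. Kept at 17° C., 90% relative humidity; % efficacy graded 4 to 5 days post-inoculation versus solvent-treated controls.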

SMILES strings stand for the structures.

Consider `CC1CC(C)(C)c2cccc(NC(=O)c3cccnc3C(F)F)c21` (centres unmarked) [Example 1], for which the Eff. % in the series with Uromyces appendiculatus worked out at 100%; with Botrytis cinerea (dose 500 ppm, gherkin, spray, graded 4 to 5 days after contamination vs control plants) it was 100%. Also, in series [1], the “logP^[a]” value is 3.29^[a]. In addition, the “protection (in words)” value with Botrytis cinerea (dose 100 ppm of active ingredient, comparison with known compounds) was “total protection”. The Efficacy with Botrytis cinerea (dose 100 ppm, comparison with known compounds, same conditions) is 100%.

(Values after US9376391B2, “Difluoromethyl-nicotinic-tetrahydronaphthyl carboxamides as fungicides” (BAYER CROPSCIENCE AKTIENGESELLSCHAFT, priority 2012, dated 2016).)
